For one assay, the target named is T1, human CYP11B1 (Homo sapiens, UniProt P15538).
T1 construct: The expression plasmids contains the ORF for either human/cyno CYP11B1 or CYP11B2; expressed in transfected cells
T1 sequence (P15538 25-503): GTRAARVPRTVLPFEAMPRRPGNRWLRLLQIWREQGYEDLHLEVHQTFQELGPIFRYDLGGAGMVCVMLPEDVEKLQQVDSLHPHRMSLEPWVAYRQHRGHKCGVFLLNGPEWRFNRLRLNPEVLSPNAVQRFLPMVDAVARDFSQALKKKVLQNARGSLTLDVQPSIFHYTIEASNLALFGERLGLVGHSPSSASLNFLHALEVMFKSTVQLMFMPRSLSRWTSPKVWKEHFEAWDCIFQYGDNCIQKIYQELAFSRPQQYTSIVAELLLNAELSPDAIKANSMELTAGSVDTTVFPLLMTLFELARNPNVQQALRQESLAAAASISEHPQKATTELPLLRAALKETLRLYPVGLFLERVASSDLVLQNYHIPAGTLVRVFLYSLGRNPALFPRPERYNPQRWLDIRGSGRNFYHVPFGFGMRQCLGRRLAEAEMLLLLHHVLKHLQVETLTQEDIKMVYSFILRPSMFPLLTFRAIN
The assay can be described thus: G-402 cellular enzyme assay, human CYP11B1 (cortisol release, HTRF). As to conditions: G-402 cells expressing human CYP11B1; 1 μM Deoxycortisol. In kind it is cell-based. An excerpt:
(§1) Herein we identified the use of the G-402 cell line as a host cell to ectopically express (transiently or stably) enzymes of the CYP11 family. Specifically we developed stable G-402 cells expressing ectopically human CYP11B1, human CYP11B2, human CYP11A1, cynmolgus CYP11B1 or cynomolgus CYP11B2 enzyme activity. Importantly the identified cell line G-402 expresses co-factors (adrenodoxin and adrenodoxin reductase) important for the activity of the CYP11 family and no relevant enzyme activity of the CYP11 family (in comparison to H295R cells) was detected in these cells. Therefore the G-402 cell line is uniquely suited as a host cell for the ectopic expression of enzymes from the CYP11 family. G-402 cells can be obtained from ATCC (CRL-1440) and were originally derived from a renal leiomyoblastoma.
(§2) The expression plasmids contains the ORF for either human/cyno CYP11B1 or CYP11B2 under the control of a suitable promoter (CMV-promoter) and a suitable resistance marker (neomycin). Using standard techniques the expression plasmid is transfected into G-402 cells and these cells are then selected for expressing the given resistance markers. Individual cell-clones are then selected and assessed for displaying the desired enzymatic activity using 11-Deoxycorticosterone (Cyp11B2) or 11-Deoxycortisol (Cyp11B) as a substrate.
(§3) G-402 cells expressing CYP11 constructs were established as described above and maintained in McCoy's 5a Medium Modified, ATCC Catalog No. 30-2007 containing 10% FCS and 400 μg/ml G418 (Geneticin) at 37° C. under an atmosphere of 5% CO2/95% air. Cellular enzyme assays were performed in DMEM/F12 medium containing 2.5% charcoal treated FCS and appropriate concentration of substrate (0.3-10 uM 11-Deoxycorticosterone, 11-Deoxycortisol or Corticosterone). For assaying enzymatic activity, cells were plated onto 96 well plates and incubated for 16 h. An aliquot of the supernatant is then transferred and analyzed for the concentration of the expected product (Aldosterone for CYP11B2; Cortisol for CYP11B1). The concentrations of these steroids can be determined using HTRF assays from CisBio analyzing either Aldosterone or Cortisol.
(§4) Inhibition of the release of produced steroids can be used as a measure of the respective enzyme inhibition by test compounds added during the cellular enzyme assay. The dose dependent inhibition of enzymatic activity by a compound is calculated by means of plotting added inhibitor concentrations (x-axes) vs. measured steroid/product level (y-axes). The inhibition is then calculated by fitting the following 4-parameter sigmoidal function (Morgan-Mercer-Flodin (MMF) model) to the raw data points using the least squares method:
(§5) [formula] wherein, A is the maximum y value, B is the EC50 factor determined using XLFit, C is the minimum y value and D is the slope value.
(§6) EC50 values for compounds claimed herein were tested with the G402-based assay system described. Cyp11B2 enzyme activity was tested in presence of 1 μM Deoxycorticosterone and variable amounts of inhibitors; Cyp11B1 enzyme activity was tested in presence of 1 μM Deoxycortisol and variable amounts of inhibitors.

The target in a further assay is T2, human CYP11B2 (Homo sapiens, UniProt P19099).
T2 construct: The expression plasmids contains the ORF for either human/cyno CYP11B1 or CYP11B2; expressed in transfected cells
T2 sequence (P19099 25-503): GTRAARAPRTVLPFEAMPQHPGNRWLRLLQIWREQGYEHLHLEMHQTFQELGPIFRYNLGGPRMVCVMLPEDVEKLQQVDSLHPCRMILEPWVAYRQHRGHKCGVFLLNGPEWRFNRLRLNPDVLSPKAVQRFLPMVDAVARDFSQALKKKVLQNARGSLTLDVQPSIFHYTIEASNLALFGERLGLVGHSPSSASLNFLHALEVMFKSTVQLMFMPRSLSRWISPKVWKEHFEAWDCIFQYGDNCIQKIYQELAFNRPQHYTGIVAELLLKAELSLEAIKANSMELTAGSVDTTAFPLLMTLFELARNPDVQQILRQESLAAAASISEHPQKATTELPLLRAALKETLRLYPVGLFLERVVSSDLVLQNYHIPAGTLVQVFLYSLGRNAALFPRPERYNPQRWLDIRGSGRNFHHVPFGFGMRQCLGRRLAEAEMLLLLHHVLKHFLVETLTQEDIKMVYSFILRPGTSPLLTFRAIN
The assay can be described thus: G-402 cellular enzyme assay, human CYP11B2 (aldosterone release, HTRF). In kind it is cell-based. As to conditions: G-402 cells expressing human CYP11B2; 1 μM Deoxycorticosterone.
From the text: as §1, §2, §3, §4, §5, §6

Molecules are shown by their SMILES.

Take `CC1(C)c2cc(Cl)ccc2C(=O)N1c1cncc(C2CCCN(S(C)(=O)=O)C2)c1` (single isomer, unassigned; (-)) [Example 6, (−)-5-chloro-3,3-dimethyl-2-[5-[(3S or 3R)-1-methylsulfonylpiperidin-3-yl]pyridin-3-yl]isoindol-1-one]: the EC50 was 332 nM at human CYP11B1 and 15 nM at human CYP11B2.

With `CCCS(=O)(=O)N1CCC(c2cncc(N3C(=O)c4ccc(Cl)cc4C3(C)C)c2)C1` (single isomer, unassigned; (-)) [Example 9, (−)-5-chloro-3,3-dimethyl-2-[5-[(3S or 3R)-1-propylsulfonylpyrrolidin-3-yl]pyridin-3-yl]isoindol-1-one], the EC50 on human CYP11B1 was found to be 800 nM; at human CYP11B2, 14 nM.

Take `CC(C)S(=O)(=O)N1CCC(c2cncc(N3C(=O)c4ccc(Cl)cc4C3(C)C)c2)C1` (single isomer, unassigned; (-)) [Example 11, (−)-5-chloro-3,3-dimethyl-2-[5-[(3S or 3R)-1-propan-2-ylsulfonylpyrrolidin-3-yl]pyridin-3-yl]isoindol-1-one]: the EC50 at human CYP11B1 worked out at 601 nM; at human CYP11B2, 7 nM.

Take `CC1(C)c2cc(Cl)ccc2C(=O)N1c1cncc(C2CCN(S(=O)(=O)C3CC3)C2)c1` (single isomer, unassigned; (-)) [Example 13, (−)-5-chloro-2-[5-[(3S or 3R)-1-cyclopropylsulfonylpyrrolidin-3-yl]pyridin-3-yl]-3,3-dimethylisoindol-1-one]: the EC50 was found to be 957 nM on human CYP11B1 and 19 nM at human CYP11B2.

Take `CCC(=O)N1CCC(c2cncc(N3C(=O)c4ccc(Cl)cc4C3(C)C)c2)CC1` [Example 1, 5-Chloro-3,3-dimethyl-2-[5-(1-propanoylpiperidin-4-yl)pyridin-3-yl]isoindol-1-one]: the EC50 stood at 238 nM on human CYP11B1 and 5 nM on human CYP11B2.

For the compound `CCS(=O)(=O)N1CCC(c2cncc(N3C(=O)c4ccc(Cl)cc4C3(C)C)c2)CC1` [Example 2, 5-Chloro-2-[5-(1-ethylsulfonylpiperidin-4-yl)pyridin-3-yl]-3,3-dimethylisoindol-1-one], the concentration giving a half-maximal response (EC50) is 290 nM on human CYP11B1 and 2 nM on human CYP11B2.

For `CC1(C)c2cc(Cl)ccc2C(=O)N1c1cncc(C2CCN(S(C)(=O)=O)CC2)c1` [Example 3, 5-Chloro-3,3-dimethyl-2-[5-(1-methylsulfonylpiperidin-4-yl)pyridin-3-yl]isoindol-1-one], the EC50 is 53 nM at human CYP11B1 and 2 nM on human CYP11B2.

In the case of `CCS(=O)(=O)N1CCCC(c2cncc(N3C(=O)c4ccc(Cl)cc4C3(C)C)c2)C1` (stereo not shown) [Example 4, 5-Chloro-2-[5-(1-ethylsulfonylpiperidin-3-yl)pyridin-3-yl]-3,3-dimethylisoindol-1-one], the results for the EC50 on human CYP11B1 and on human CYP11B2 were 605 nM and 6 nM, respectively.

In the case of `CCS(=O)(=O)N1CCC(c2cncc(N3C(=O)c4ccc(Cl)cc4C3(C)C)c2)C1` (stereo not shown) [Example 7, 5-Chloro-2-[5-(1-ethylsulfonylpyrrolidin-3-yl)pyridin-3-yl]-3,3-dimethylisoindol-1-one], the EC50 at human CYP11B1 was 149 nM; on human CYP11B2, 2 nM.

For the compound `CC(C)S(=O)(=O)N1CCC(F)(c2cncc(N3C(=O)c4ccc(Cl)cc4C3(C)C)c2)C1` (stereo not shown) [Example 14, 5-Chloro-2-[5-(3-fluoro-1-propan-2-ylsulfonylpyrrolidin-3-yl)pyridin-3-yl]-3,3-dimethylisoindol-1-one], the values for the concentration giving a half-maximal response (EC50) at human CYP11B1 and on human CYP11B2 were 232 nM and 4 nM, respectively.

As to `CCCS(=O)(=O)N1CCC(c2cncc(N3C(=O)c4ccc(Cl)cc4C3(C)C)c2)CC1` [Example 15, 5-Chloro-3,3-dimethyl-2-[5-(1-propylsulfonylpiperidin-4-yl)pyridin-3-yl]isoindol-1-one], the 50% effective concentration (EC50) at human CYP11B1 turned out to be 239 nM; on human CYP11B2, 1 nM.

On to `CC(C)S(=O)(=O)N1CCC(c2cncc(N3C(=O)c4ccc(Cl)cc4C3(C)C)c2)CC1` [Example 16, 5-Chloro-3,3-dimethyl-2-[5-(1-propan-2-ylsulfonylpiperidin-4-yl)pyridin-3-yl]isoindol-1-one], for which the EC50 on human CYP11B1 was 1190 nM; at human CYP11B2, 4 nM.

Turning to `CC1(C)c2cc(Cl)ccc2C(=O)N1c1cncc(C2CCN(S(=O)(=O)C3CC3)CC2)c1` [Example 17, 5-Chloro-2-[5-(1-cyclopropylsulfonylpiperidin-4-yl)pyridin-3-yl]-3,3-dimethylisoindol-1-one], the results for the EC50 at human CYP11B1 and at human CYP11B2 were 1000 nM and 3 nM, respectively.

`Cc1ccncc1C(=O)N1CCC(c2cncc(N3C(=O)c4ccc(Cl)cc4C3(C)C)c2)CC1` [Example 18, 5-Chloro-3,3-dimethyl-2-[5-[1-(4-methylpyridine-3-carbonyl)piperidin-4-yl]pyridin-3-yl]isoindol-1-one]: the EC50 worked out at 219 nM on human CYP11B1 and 16 nM on human CYP11B2.

For the compound `CC1(C)c2cc(Cl)ccc2C(=O)N1c1cncc(C2CCN(C(=O)c3ccncc3Cl)CC2)c1` [Example 19, 5-Chloro-2-[5-[1-(3-chloropyridine-4-carbonyl)piperidin-4-yl]pyridin-3-yl]-3,3-dimethylisoindol-1-one], the half-maximal effective concentration (EC50) was 1340 nM at human CYP11B1 and 21 nM on human CYP11B2.

`CC1(C)c2cc(Cl)ccc2C(=O)N1c1cncc(C2CCN(C(=O)c3ncccc3Cl)CC2)c1` [Example 20, 5-Chloro-2-[5-[1-(3-chloropyridine-2-carbonyl)piperidin-4-yl]pyridin-3-yl]-3,3-dimethylisoindol-1-one]: the EC50 at human CYP11B1 came out at 488 nM; on human CYP11B2, 8 nM.

In the case of `CCS(=O)(=O)N1CCC(c2cncc(N3Cc4cc(Cl)ccc4C3=O)c2)CC1` [Example 21, 5-Chloro-2-[5-(1-ethylsulfonylpiperidin-4-yl)pyridin-3-yl]-3H-isoindol-1-one], the results for the EC50 at human CYP11B1 and at human CYP11B2 were 1050 nM and 25 nM, respectively.

Regarding `CC(C)S(=O)(=O)N1CCC(c2cncc(N3Cc4cc(Cl)ccc4C3=O)c2)CC1` [Example 22, 5-Chloro-2-[5-(1-propan-2-ylsulfonylpiperidin-4-yl)pyridin-3-yl]-3H-isoindol-1-one], the EC50 on human CYP11B1 stood at 7340 nM; on human CYP11B2 it was 84 nM.

Turning to `Cc1ccncc1C(=O)N1CCC(c2cncc(N3Cc4cc(Cl)ccc4C3=O)c2)CC1` [Example 23, 5-Chloro-2-[5-[1-(4-methylpyridine-3-carbonyl)piperidin-4-yl]pyridin-3-yl]-3H-isoindol-1-one], the EC50 at human CYP11B1 came to 949 nM; on human CYP11B2, 97 nM.

On to `CCS(=O)(=O)N1CCC(F)(c2cncc(N3C(=O)c4ccc(Cl)cc4C3(C)C)c2)CC1` [Example 30, 5-Chloro-2-[5-(1-ethylsulfonyl-4-fluoropiperidin-4-yl)pyridin-3-yl]-3,3-dimethylisoindol-1-one], for which the concentration giving a half-maximal response (EC50) on human CYP11B1 was found to be 153 nM; at human CYP11B2 it was 1 nM.
